Assay results reported in PubChem BioAssay AID2060903 (Molecular Pharmacology Branch, DTP, NCI, 2025).

Tested on: 377384-186-R-J1-PDC complex spheroid viability
Test: Anticancer human tumor 377384-186-R-J1-PDC patient-derived pancreatic carcinoma cell line growth inhibition [RAS]
Conditions: for viability, T/C: stronger effect = lower value
Outline: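 Multi-cell-type spheroids: tumor cells plus HUVEC endothelial cells and mesenchymal stem cells. RAS-pathway inhibitors were combined with targeted agents, each dosed in half-log steps down from clinical Cmax, or from 10 microM when Cmax was unknown.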

[1] = curve of first compound, second compound 0.000949 µM
[2] = curve of first compound, second compound 0.003 µM
[3] = curve of first compound, second compound 0.00949 µM
[4] = curve of first compound, second compound 0.03 µM
[5] = curve of first compound, second compound 0.0949 µM
[6] = curve of first compound, second compound 0.3 µM
[7] = second compound 0.000949 µM, first compound 0.0316 µM
[8] = second compound 0.000949 µM, first compound 0.1 µM
[9] = second compound 0.000949 µM, first compound 0.316 µM
[10] = second compound 0.000949 µM, first compound 1 µM
[11] = second compound 0.003 µM, first compound 0.0316 µM
[12] = second compound 0.003 µM, first compound 0.1 µM
[13] = second compound 0.003 µM, first compound 0.316 µM
[14] = second compound 0.003 µM, first compound 1 µM
[15] = second compound 0.00949 µM, first compound 0.0316 µM
[16] = second compound 0.00949 µM, first compound 0.1 µM
[17] = second compound 0.00949 µM, first compound 0.316 µM
[18] = second compound 0.00949 µM, first compound 1 µM
[19] = second compound 0.03 µM, first compound 0.0316 µM
[20] = second compound 0.03 µM, first compound 0.1 µM
[21] = second compound 0.03 µM, first compound 0.316 µM
[22] = second compound 0.03 µM, first compound 1 µM
[23] = second compound 0.0949 µM, first compound 0.0316 µM
[24] = second compound 0.0949 µM, first compound 0.1 µM
[25] = second compound 0.0949 µM, first compound 0.316 µM
[26] = second compound 0.0949 µM, first compound 1 µM
[27] = second compound 0.3 µM, first compound 0.0316 µM
[28] = second compound 0.3 µM, first compound 0.1 µM
[29] = second compound 0.3 µM, first compound 0.316 µM
[30] = second compound 0.3 µM, first compound 1 µM
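Further: spheroids exposed to compounds for seven days before readout.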

In the case of `CC(C)NCC(C(=O)N1CCN(c2ncnc3c2C(C)CC3O)CC1)c1ccc(Cl)cc1` (configuration not stated), the viability, T/C (compound 0.1 µM) is reported as 92% [middle of 4 runs], the viability, T/C (compound 0.316 µM) is reported as 75.2% [middle of 4 runs] and the viability, T/C (compound 1 µM) is reported as 63.2% [middle of 4 runs]. The viability, T/C (compound 3.16 µM) was 51.9% [middle of 4 runs], the viability, T/C (compound 10 µM) was 36.2% [middle of 4 runs] and the IC50 (curve of compound) was 2.58 µM [middle of 4 runs].
In the case of `CC1(O)CCCC1n1c(=O)c(C(F)F)cc2cnc(NC3CCN(S(C)(=O)=O)CC3)nc21` (configuration not stated) + CCn1c(-c2cccnc2C(C)OC)c2c3cc(ccc31)N1CCOC(CC(NC(=O)C(C(C)C)N(C)C(=O)C3(F)CCN(C(=O)C#CC(C)(C)N(C)C)CC3)C(=O)N3CCCC(N3)C(=O)OCC(C)(C)C2)C1, the IC50 [1] is reported as 91.3 nM, the IC50 [2] is reported as 105 nM and the IC50 [3] is reported as 122 nM. For the same compound, the IC50 [4] was 111 nM, the IC50 [5] was 78.5 nM and the IC50 [6] was 62.8 nM. For the same compound, the viability, T/C [7] was 79.6%, the viability, T/C [8] was 46.6% and the viability, T/C [9] was 28.9%. The viability, T/C [10] was 28.6%, the viability, T/C (second compound 0.000949 µM, first compound 3.16 µM) was 35.1% and the viability, T/C (second compound 0.000949 µM, first compound 10 µM) was 9.26%. The viability, T/C [11] was 76.8%, the viability, T/C [12] was 52.7% and the viability, T/C [13] was 28.8%. For the same compound, the viability, T/C [14] was 26.6%, the viability, T/C (second compound 0.003 µM, first compound 3.16 µM) was 34.8% and the viability, T/C (second compound 0.003 µM, first compound 10 µM) was 8.79%. It also gave a viability, T/C [15] of 84.6%, a viability, T/C [16] of 55.6% and a viability, T/C [17] of 27%. It also gave a viability, T/C [18] of 29.7%, a viability, T/C (second compound 0.00949 µM, first compound 3.16 µM) of 36% and a viability, T/C (second compound 0.00949 µM, first compound 10 µM) of 7.91%. It also gave a viability, T/C [19] of 67.4%, a viability, T/C [20] of 52.6% and a viability, T/C [21] of 24.9%. The viability, T/C [22] was 21.5%, the viability, T/C (second compound 0.03 µM, first compound 3.16 µM) was 34.7% and the viability, T/C (second compound 0.03 µM, first compound 10 µM) was 7.53%. For the same compound, the viability, T/C [23] was 71.3%, the viability, T/C [24] was 46.5% and the viability, T/C [25] was 23.9%. For the same compound, the viability, T/C [26] was 22.2%, the viability, T/C (second compound 0.0949 µM, first compound 3.16 µM) was 33.4% and the viability, T/C (second compound 0.0949 µM, first compound 10 µM) was 6.19%. It also gave a viability, T/C [27] of 68%, a viability, T/C [28] of 37.7% and a viability, T/C [29] of 18.6%. The viability, T/C [30] was 22.7%, the viability, T/C (second compound 0.3 µM, first compound 3.16 µM) was 34.7% and the viability, T/C (second compound 0.3 µM, first compound 10 µM) was 5.35%.
`Nc1ccn(C2OC(CO)C(O)C2(F)F)c(=O)n1` (configuration not stated) + CCn1c(-c2cccnc2C(C)OC)c2c3cc(ccc31)N1CCOC(CC(NC(=O)C(C(C)C)N(C)C(=O)C3(F)CCN(C(=O)C#CC(C)(C)N(C)C)CC3)C(=O)N3CCCC(N3)C(=O)OCC(C)(C)C2)C1 gave an IC50 [1] of 11.3 nM, an IC50 [2] of 9.69 nM and an IC50 [3] of 12.6 nM. The IC50 [4] was 11.8 nM, the IC50 [5] was 9.29 nM and the IC50 [6] was 7.06 nM. For the same compound, the viability, T/C (second compound 0.000949 µM, first compound 0.00316 µM) was 87.1%, the viability, T/C (second compound 0.000949 µM, first compound 0.01 µM) was 53.8% and the viability, T/C [7] was 19.4%. The viability, T/C [8] was 7.57%, the viability, T/C [9] was 5.68% and the viability, T/C [10] was 3.18%. It also gave a viability, T/C (second compound 0.003 µM, first compound 0.00316 µM) of 94.7%, a viability, T/C (second compound 0.003 µM, first compound 0.01 µM) of 48.4% and a viability, T/C [11] of 23.4%. The viability, T/C [12] was 9.1%, the viability, T/C [13] was 4.5% and the viability, T/C [14] was 3.68%. The viability, T/C (second compound 0.00949 µM, first compound 0.00316 µM) was 96.1%, the viability, T/C (second compound 0.00949 µM, first compound 0.01 µM) was 57.7% and the viability, T/C [15] was 19.2%. The viability, T/C [16] was 8.08%, the viability, T/C [17] was 5.38% and the viability, T/C [18] was 4.57%. For the same compound, the viability, T/C (second compound 0.03 µM, first compound 0.00316 µM) was 90.9%, the viability, T/C (second compound 0.03 µM, first compound 0.01 µM) was 55.3% and the viability, T/C [19] was 17.6%. The viability, T/C [20] was 5.8%, the viability, T/C [21] was 5.88% and the viability, T/C [22] was 3.65%. The viability, T/C (second compound 0.0949 µM, first compound 0.00316 µM) was 79.1%, the viability, T/C (second compound 0.0949 µM, first compound 0.01 µM) was 47.8% and the viability, T/C [23] was 20.1%. The viability, T/C [24] was 7.12%, the viability, T/C [25] was 4.37% and the viability, T/C [26] was 4.2%. The viability, T/C (second compound 0.3 µM, first compound 0.00316 µM) was 71.9%, the viability, T/C (second compound 0.3 µM, first compound 0.01 µM) was 40.6% and the viability, T/C [27] was 13%. For the same compound, the viability, T/C [28] was 5.77%, the viability, T/C [29] was 4.01% and the viability, T/C [30] was 3.34%.
In the case of `CC1(C)CCC(Nc2ncc(C(F)(F)F)c(-c3c[nH]c4c(P(C)(C)=O)c(C#N)ccc34)n2)CN1` (configuration not stated) + C=CC(=O)N1CCN(c2nc(OCC3CCCN3C)nc3c(F)c(-c4nc(N)cc(C)c4C(F)(F)F)c(Cl)cc23)C(C)C1, the IC50 (curve of first compound, second compound 0.00316 µM) is reported as 2.98 nM, the IC50 (curve of first compound, second compound 0.01 µM) is reported as 4.06 nM and the IC50 (curve of first compound, second compound 0.0316 µM) is reported as 4.22 nM. The IC50 (curve of first compound, second compound 0.1 µM) was 2.65 nM, the IC50 (curve of first compound, second compound 0.316 µM) was 3.18 nM and the IC50 (curve of first compound, second compound 1 µM) was 3.33 nM. It also gave a viability, T/C (second compound 0.00316 µM, first compound 0.000949 µM) of 83.3%, a viability, T/C (second compound 0.00316 µM, first compound 0.003 µM) of 49.5% and a viability, T/C (second compound 0.00316 µM, first compound 0.00949 µM) of 27.8%. For the same compound, the viability, T/C (second compound 0.00316 µM, first compound 0.03 µM) was 15.9%, the viability, T/C (second compound 0.00316 µM, first compound 0.0949 µM) was 14.4% and the viability, T/C (second compound 0.00316 µM, first compound 0.3 µM) was 13.2%. The viability, T/C (second compound 0.01 µM, first compound 0.000949 µM) was 89%, the viability, T/C (second compound 0.01 µM, first compound 0.003 µM) was 57.6% and the viability, T/C (second compound 0.01 µM, first compound 0.00949 µM) was 28.6%. For the same compound, the viability, T/C (second compound 0.01 µM, first compound 0.03 µM) was 17%, the viability, T/C (second compound 0.01 µM, first compound 0.0949 µM) was 13.9% and the viability, T/C (second compound 0.01 µM, first compound 0.3 µM) was 14.7%. For the same compound, the viability, T/C (second compound 0.0316 µM, first compound 0.000949 µM) was 79.1%, the viability, T/C (second compound 0.0316 µM, first compound 0.003 µM) was 60.1% and the viability, T/C (second compound 0.0316 µM, first compound 0.00949 µM) was 26%. The viability, T/C (second compound 0.0316 µM, first compound 0.03 µM) was 18.8%, the viability, T/C (second compound 0.0316 µM, first compound 0.0949 µM) was 14.8% and the viability, T/C (second compound 0.0316 µM, first compound 0.3 µM) was 15%. For the same compound, the viability, T/C (second compound 0.1 µM, first compound 0.000949 µM) was 74.6%, the viability, T/C (second compound 0.1 µM, first compound 0.003 µM) was 46.9% and the viability, T/C (second compound 0.1 µM, first compound 0.00949 µM) was 27.7%. The viability, T/C (second compound 0.1 µM, first compound 0.03 µM) was 17.5%, the viability, T/C (second compound 0.1 µM, first compound 0.0949 µM) was 14.5% and the viability, T/C (second compound 0.1 µM, first compound 0.3 µM) was 12.5%. For the same compound, the viability, T/C (second compound 0.316 µM, first compound 0.000949 µM) was 76.1%, the viability, T/C (second compound 0.316 µM, first compound 0.003 µM) was 51.3% and the viability, T/C (second compound 0.316 µM, first compound 0.00949 µM) was 26.7%. It also gave a viability, T/C (second compound 0.316 µM, first compound 0.03 µM) of 16.5%, a viability, T/C (second compound 0.316 µM, first compound 0.0949 µM) of 13.6% and a viability, T/C (second compound 0.316 µM, first compound 0.3 µM) of 13.2%. It also gave a viability, T/C (second compound 1 µM, first compound 0.000949 µM) of 78.7%, a viability, T/C (second compound 1 µM, first compound 0.003 µM) of 52.6% and a viability, T/C (second compound 1 µM, first compound 0.00949 µM) of 25%. For the same compound, the viability, T/C (second compound 1 µM, first compound 0.03 µM) was 17.4%, the viability, T/C (second compound 1 µM, first compound 0.0949 µM) was 16% and the viability, T/C (second compound 1 µM, first compound 0.3 µM) was 12.5%.
